Source: patent US20230104487A1, “11-(4-CHLOROPHENYL)-4-(2,3-DIHYDRO-1H-INDOLE-1-CARBONYL)-3,11-DIMETHYL-5,10,DIOXATRICYCLO[7.4.0.0,2,6,]TRIDECA-1,3,6,8-TETRAEN-13-ONE AND DERIVATIVES AS DESTABILIZER OF CRY1 FOR THE TREATMENT OF CIRCADIAN RHYTHM ASSOCIATED DISEASES AND DISORDERS” (KOC UNIVERSITESI, priority 2019, published 2023)

Columns and labels:
C57BL/6J mice = assay: Single dose toxicity study in mice; assay type: in vivo
Method: Male and female C57BL/6J mice, 8-12 weeks of age, weighing 18-24 g were used in the in vivo studies with FORMULA I. Mice were obtained from Kog University Animal Research Facility (KUTTAM) and experiments were conducted in accordance with the guidelines approved for animal experimental procedures by the Koc University Animal Research Local Ethics Committee (No: 2015/13).
Mice were housed in polystyrene cages up to four animals in the room equipped with temperature control (21±2° C.) and humidity (55±5%). Mice were housed under 12 h of light (L) in alternation with 12 h of darkness (D) (LD 12:12) prior to any intervention and the same lighting regimen continued to the end of the experiment. Water and food were provided ad libitum throughout the experiments. FORMULA I or vehicle were administered intraperitoneally to mice at the same time every day (three hours after light onset). […]
The dose levels to be used in the single dose toxicity study were selected according to the OECD Guidelines (Guidelines for the testing of chemicals, 2002). […] Body weight was measured every day as an index of general toxicity. […] The body temperatures of the mice were recorded by rectal homeothermic monitor (Harvard Apparatus, US) for 5 days following FORMULA I injection. […] Food intake and water consumption were also monitored for 14 days. […] Hematological parameters were analyzed in blood samples.

[1] = target: T1, CRY1-T5 (PHR domain of CRY1) (Mus musculus, UniProt P97784); assay: Pull-down assay with biotinylated molecule, CRY1-T5; assay type: binding; settings: CRY1 lacking 100 C-terminal amino acids
T1 construct: CRY1-T5 (the lack of 100 amino acids from C-terminal end); expressed in transfected cells; host or cells: HEK293T (lysate)
T1 sequence (P97784 1-506 limits assumed): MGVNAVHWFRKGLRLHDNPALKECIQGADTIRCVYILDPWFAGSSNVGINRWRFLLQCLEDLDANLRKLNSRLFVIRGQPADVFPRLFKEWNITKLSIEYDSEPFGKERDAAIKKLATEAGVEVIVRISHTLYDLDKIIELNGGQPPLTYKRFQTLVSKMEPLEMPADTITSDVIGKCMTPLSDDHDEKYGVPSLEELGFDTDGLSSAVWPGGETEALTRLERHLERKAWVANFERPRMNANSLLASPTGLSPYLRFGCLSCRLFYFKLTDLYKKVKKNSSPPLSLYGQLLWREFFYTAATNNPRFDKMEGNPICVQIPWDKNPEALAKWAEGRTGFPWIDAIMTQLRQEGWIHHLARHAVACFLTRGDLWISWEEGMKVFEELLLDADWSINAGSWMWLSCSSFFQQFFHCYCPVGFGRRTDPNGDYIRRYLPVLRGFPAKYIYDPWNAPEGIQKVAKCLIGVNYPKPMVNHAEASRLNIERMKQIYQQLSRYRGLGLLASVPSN
Method: 10 μg of Cry1-pcDNA4, Cry2-pcDNA4 or Cry1-T5-pcDNA4 plasmids expressing His and Myc at the C-terminal of CRYs were transfected to HEK293T cell. After 48 h of transfection cells were harvested and lysed in lysis buffer (50 mM Tris pH 7.4, 2 mM EDTA, 1 mM MgCl2, 0.2% NP-40 (v/v), 0.1% sodium deoxycholate (w/v), 1 mM sodium orthovanadate, 1 mM sodium fluoride, and protease inhibitor cocktail (Thermo Scientific)). Lysates were incubated for 10 minutes on ice then mixed gently and incubated for another 10 minutes on ice. Then lysate was centrifuged for 10 minutes at 7000 g at 4° C. 5% of the supernatant was kept for input analysis. Remaining supernatant was divided to three and mixed with 2×binding buffer (100 mM Tris-HCl pH 7.4, 300 mM NaCl, 0.2% NP-40 (v/v), 2 mM sodium orthovanadate, 2 mM sodium fluoride, and protease inhibitor) with 1:1 ratio, incubated with rotation having either of these: a) DMSO, b) biotinylated molecule, c) biotinylated molecule and the competitor for 2 h. During this period NeutrAvidin Agarose resin (Thermo Scientific) was equilibrated with lysis buffer by mixing for 5 minutes via rotation at 4° C. three times. After each mix period, resins were centrifuged at 2500 g at 4° C. for 2 minutes and supernatant was discarded. […] Pulled-down samples were analyzed via western blot.

Cc1c(C(=O)N2CCc3ccccc32)oc2ccc3c(c12)C(=O)CC(C)(c1ccc(Cl)cc1)O3 (stereo not drawn) [FORMULA I, 11-(4-chlorophenyl)-4-(2,3-dihydro-1H-indole-1-carbonyl)-3,11-dimethyl-5,10,dioxatricyclo[7.4.0.0,2,6,]trideca-1,3,6,8-tetraen-13-one]
tolerability (C57BL/6J mice; single doses of 5 and 50 mg/kg): well-tolerated
toxic effect in pharmacological studies with mice (C57BL/6J mice; summary statement): no toxic effect
binding to PHR domain (CRY1-T5 pull-down) [1]: bound to the PHR domain
